# According to patent US9783573B2, “IAP antagonists” (BRISTOL-MYERS SQUIBB COMPANY, priority 2012, dated 2017):
# pIC50: −log10 of the molar value.
# Molecular target: N-His-Tb-BIR3 (241-356, XIAP) (Homo sapiens (Human), UniProt P98170)
# Assay: biochemical
# Format: binding
# Conditions: fluoresceinated modified SMAC peptide, fluorescence polarization; read-out: XIAP BIR3 FPA IC50
row,Compound,pIC50
1,"CN[C@@H](C)C(=O)N[C@H](C(=O)N1Cc2cc(N(C(=O)C3(C(N)=O)CC3)[C@H]3C[C@@H](C(=O)N[C@@H]4CCCc5ccccc54)N(C(=O)[C@@H](NC(=O)[C@H](C)NC)C(C)(C)C)C3)ccc2C[C@H]1C(=O)N[C@@H]1CCCc2ccccc21)C(C)(C)C [Example 4, N-((S)-2-((S)-3,3-Dimethyl-2-((S)-2-(methylamino)propanamido)butanoyl)-3-(((R)-1,2,3,4-tetrahydronaphthalen-1-yl)carbamoyl)-1,2,3,4-tetrahydroisoquinolin-7-yl)-N-((3S,5S)-1-((S)-3,3-dimethyl-2-((S)-2-(methylamino)propanamido)butanoyl)-5-(((R)-1,2,3,4-tetrahydronaphthalen-1-yl)carbamoyl)pyrrolidin-3-yl)cyclopropane-1,1-dicarboxamide]",7.28
2,"CCN[C@@H](C)C(=O)N[C@H](C(=O)N1Cc2cc(NC(=O)c3ccc(C(=O)N[C@H]4C[C@@H](C(=O)N[C@@H]5CCCc6ccccc65)N(C(=O)[C@@H](NC(=O)[C@H](C)NC)C(C)(C)C)C4)cc3)ccc2C[C@H]1C(=O)N[C@@H]1CCCc2ccccc21)C(C)(C)C [Example 34, N^1-((3S,5S)-1-((S)-3,3-dimethyl-2-((S)-2-(methylamino)propanamido)butanoyl)-5-(((R)-1,2,3,4-tetrahydronaphthalen-1-yl)carbamoyl)pyrrolidin-3-yl)-N^4-((S)-2-((S)-2-((S)-2-(ethylamino)propanamido)-3,3-dimethylbutanoyl)-3-(((R)-1,2,3,4-tetrahydronaphthalen-1-yl)carbamoyl)-1,2,3,4-tetrahydroisoquinolin-7-yl)terephthalamide]",6.82
3,"CN[C@@H](C)C(=O)N[C@H](C(=O)N1Cc2cc(NCc3ccc(C(=O)N[C@H]4C[C@@H](C(=O)N[C@@H]5CCCc6ccccc65)N(C(=O)[C@@H](NC(=O)[C@H](C)NC)C(C)(C)C)C4)cc3Cl)ccc2C[C@H]1C(=O)N[C@@H]1CCCc2ccccc21)C(C)(C)C [Example 33, (S)-7-((2-Chloro-4-(((3S,5S)-1-((S)-3,3-dimethyl-2-((S)-2-(methylamino)propanamido)butanoyl)-5-(((R)-1,2,3,4-tetrahydronaphthalen-1-yl)carbamoyl)pyrrolidin-3-yl)carbamoyl)benzyl)amino)-2-((S)-3,3-dimethyl-2-((S)-2-(methylamino)propanamido)butanoyl)-N—((R)-1,2,3,4-tetrahydronaphthalen-1-yl)-1,2,3,4-tetrahydroisoquinoline-3-carboxamide]",7.18
4,"CN[C@@H](C)C(=O)N[C@H](C(=O)N1Cc2cc(OC(=O)c3ccc(C(=O)N[C@H]4C[C@@H](C(=O)N[C@@H]5CCCc6ccccc65)N(C(=O)[C@@H](NC(=O)[C@H](C)NC)C(C)(C)C)C4)cc3)ccc2C[C@H]1C(=O)N[C@@H]1CCCc2ccccc21)C(C)(C)C [Example 46, (S)-2-((S)-3,3-Dimethyl-2-((S)-2-(methylamino)propanamido)butanoyl)-3-(((R)-1,2,3,4-tetrahydronaphthalen-1-yl)carbamoyl)-1,2,3,4-tetrahydroisoquinolin-7-yl 4-(((3S,5S)-1-((S)-3,3-dimethyl-2-((S)-2-(methylamino)propanamido)butanoyl)-5-(((R)-1,2,3,4-tetrahydronaphthalen-1-yl)carbamoyl)pyrrolidin-3-yl)carbamoyl)benzoate]",7.16
5,"CN[C@@H](C)C(=O)N[C@H](C(=O)N1Cc2cc(NC(=O)c3ccc(CO[C@H]4C[C@@H](C(=O)N[C@@H]5CCCc6ccccc65)N(C(=O)[C@@H](NC(=O)[C@H](C)NC)C(C)(C)C)C4)cc3)ccc2C[C@H]1C(=O)N[C@@H]1CCCc2ccccc21)C(C)(C)C [Example 47, (S)-2-((S)-3,3-Dimethyl-2-((S)-2-(methylamino)propanamido)butanoyl)-7-(4-((((3S,5S)-1-((S)-3,3-dimethyl-2-((S)-2-(methylamino)propanamido)butanoyl)-5-(((R)-1,2,3,4-tetrahydronaphthalen-1-yl)carbamoyl)pyrrolidin-3-yl)oxy)methyl)benzamido)-N—((R)-1,2,3,4-tetrahydronaphthalen-1-yl)-1,2,3,4-tetrahydroisoquinoline-3-carboxamide]",7.17
6,"CN[C@@H](C)C(=O)N[C@H](C(=O)N1Cc2cc(NC(=O)c3ccc(CO[C@H]4C[C@@H](C(=O)N[C@@H]5CCCc6ccccc65)N(C(=O)[C@@H](NC(=O)[C@H](C)NC)C(C)(C)C)C4)cc3)ccc2C[C@H]1C(=O)N[C@H](C)c1ccccc1F)C(C)(C)C [Example 50, (S)-2-((S)-3,3-Dimethyl-2-((S)-2-(methylamino)propanamido)butanoyl)-7-(4-((((3S,5S)-1-((S)-3,3-dimethyl-2-((S)-2-(methylamino)propanamido)butanoyl)-5-(((R)-1,2,3,4-tetrahydronaphthalen-1-yl)carbamoyl)pyrrolidin-3-yl)oxy)methyl)benzamido)-N-((R)-1-(2-fluorophenyl)ethyl)-1,2,3,4-tetrahydroisoquinoline-3-carboxamide]",7.28
7,"CN[C@@H](C)C(=O)N[C@H](C(=O)N1Cc2cc(NC(=O)c3ccc(CCC(=O)N[C@H]4C[C@@H](C(=O)N[C@@H]5CCCc6ccccc65)N(C(=O)[C@@H](NC(=O)[C@H](C)NC)C(C)(C)C)C4)cc3)ccc2C[C@H]1C(=O)N[C@@H]1CCCc2ccccc21)C(C)(C)C [Example 9, (S)-2-((S)-3,3-Dimethyl-2-((S)-2-(methylamino)propanamido)butanoyl)-7-(4-(3-(((3S,5S)-1-((S)-3,3-dimethyl-2-((S)-2-(methylamino)propanamido)butanoyl)-5-(((R)-1,2,3,4-tetrahydronaphthalen-1-yl)carbamoyl)pyrrolidin-3-yl)amino)-3-oxopropyl)benzamido)-N-((R)-1,2,3,4-tetrahydronaphthalen-1-yl)-1,2,3,4-tetrahydroisoquinoline-3-carboxamide]",7.19
8,CN[C@@H](C)C(=O)N[C@H](C(=O)N1C[C@@H](NC(=O)c2ccc(C(=O)Nc3ccc4c(c3)CN(C(=O)[C@@H](NC(=O)[C@@H](NC)C(C)C)C(C)(C)C)[C@H](C(=O)N[C@@H]3CCCc5ccccc53)C4)cc2)C[C@H]1C(=O)N[C@@H]1CCCc2ccccc21)C(C)(C)C [Example 35],6.70
9,"CN[C@@H](C)C(=O)N[C@H](C(=O)N1Cc2cc(C(=O)NC(C)(C)C(=O)N[C@H]3C[C@@H](C(=O)N[C@@H]4CCCc5ccccc54)N(C(=O)[C@@H](NC(=O)[C@H](C)NC)C(C)(C)C)C3)ccc2C[C@H]1C(=O)N[C@@H]1CCCc2ccccc21)C(C)(C)C [Example 29, (S)-2-((S)-3,3-Dimethyl-2-((S)-2-(methylamino)propanamido)butanoyl)-N7-(1-(((3S,5S)-1-((S)-3,3-dimethyl-2-((S)-2-(methylamino)propanamido)butanoyl)-5-(((R)-1,2,3,4-tetrahydronaphthalen-1-yl)carbamoyl)pyrrolidin-3-yl)amino)-2-methyl-1-oxopropan-2-yl)-N3-((R)-1,2,3,4-tetrahydronaphthalen-1-yl)-1,2,3,4-tetrahydroisoquinoline-3,7-dicarboxamide]",7.21
